The values below come from US7825123B2, “Isoxazolo[4,5]pyridin-3-yl-piperazin derivatives useful as modulators of dopamine D3 receptors” (Hoffmann-La Roche Inc., priority 2008, dated 2010).

In this assay the target is T1, human D3 dopamine receptor (Homo sapiens, UniProt P35462).
T1 construct: expressed in transfected cells; host or cells: HEK-293 EBNA cells, transient transfection; membrane preparation
Kind of assay: radioligand binding ([3H]-spiperone) to cloned human D3 receptors expressed in HEK-293 EBNA cells. The note with it: [3H]-spiperone approx. 0.5 nM, HEK-293 EBNA membranes, 1 h at RT; Ki by Cheng-Prusoff. The protocol: The cells were harvested 48 h post-transfection, washed three times with cold PBS and stored at −80° C. prior to use. The pellet was suspended in cold 50 mM Tris-HCl buffer containing 10 mM EDTA (pH 7.4) and homogenized with a Polytron (Kinematica AG, Basel, Switzerland) for 20-30 sec at 12.000 rpm. After centrifugation at 48.000×g for 30 min at 4° C., the pellet was resuspended in cold 10 mM Tris-HCl buffer containing 0.1 mM EDTA (pH 7.4), homogenized, and centrifuged as above. This pellet was further resuspended in a smaller volume of ice cold 10 mM Tris-HCl buffer containing 0.1 mM EDTA (pH 7.4) and homogenized with a Polytron for 20-30 sec at 12.000 rpm. The protein content of this homogenate was determined with the Bio-Rad (Bradford) Protein Assay (Biorad Laboratories GmbH, München, Germany) according to the instructions of the manufacturer using gamma globulin as the standard. This homogenate was stored at −80° C. in aliquots and thawed immediately prior to use.
Aliquots of membrane preparations were thawed at RT, resuspended in assay buffer (50 mM Tris-HCl, 120 mM NaCl, 5 mM MgCl2, 1 mM EDTA, 5 mM KCl, 1.5 mM CaCl2, pH=7.4), homogenized with a Polytron for 20-30 sec at 12.000 rpm and adjusted to a final concentration of approximately 7.5 μg protein/well.
The binding affinity (Ki) of the compounds was determined using radioligand binding. Membranes were incubated in a total volume of 200 μl with a fixed concentration of radioligand (final concentration approximately 0.5 nM [^3H]-spiperone) and ten concentrations of test compound in ranging between 10 μM-0.1 nM for 1 h at RT. […] The nonspecific binding was determined with equally composed reaction mixtures in the presence of 10 μM unlabelled spiperone. Per well 45 μl of Microscint 40 (Perkin Elmer, Schwerzenbach, Switzerland) was added, plates for sealed, shaken for 20 min and counted for 3 min on a Topcount Microplate Scintillation Counter (Canberra Packard SA, Zürich, Switzerland) with quenching correction.
The CPM value for each duplicate of a concentration of competing compound was averaged (y1), then the % specific binding was calculated according to the equation (((y1−non-specific)/(total binding−non-specific))×100). Graphs were plotted with the % specific binding using XLfit, a curve fitting program that iteratively plots the data using Levenburg Marquardt algorithm. The single site competition analysis equation used was y=A+((B−A)/(1+((x/C)^D))), where y is the % specific binding, A is the minimum y, B is the maximum y, C is the IC50, x is the log10 of the concentration of the competing compound and D is the slope of the curve (the Hill Coefficient). […] The affinity constant (Ki) was calculated using the Cheng-Prusoff equation Ki=(IC50/1+([L]/Kd), where [L] is the concentration of radioligand and Kd is the dissociation constant of the radioligand at the receptor as determined by the saturation isotherm.

T1 sequence (P35462 whole entry): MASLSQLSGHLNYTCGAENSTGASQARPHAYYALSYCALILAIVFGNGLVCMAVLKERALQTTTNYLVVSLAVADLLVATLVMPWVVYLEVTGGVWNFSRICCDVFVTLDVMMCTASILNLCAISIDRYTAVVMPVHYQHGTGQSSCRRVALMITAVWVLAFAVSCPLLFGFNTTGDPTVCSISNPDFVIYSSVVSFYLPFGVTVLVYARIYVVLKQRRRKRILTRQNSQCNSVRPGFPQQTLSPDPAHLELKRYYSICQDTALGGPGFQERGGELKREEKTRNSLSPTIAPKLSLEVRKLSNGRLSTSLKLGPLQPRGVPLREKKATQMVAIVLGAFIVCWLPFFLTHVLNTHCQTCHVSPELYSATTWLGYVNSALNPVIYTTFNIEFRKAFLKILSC

As a reminder, the Ki is a measure of affinity in units of concentration, obtained from inhibition or displacement. Take `CC(=O)N[C@H]1CC[C@H](CCN2CCN(c3noc4ccncc34)CC2)CC1` [Example 1, N-{trans-4-[2-(4-Isoxazolo[4,5-c]pyridin-3-yl-piperazin-1-yl)-ethyl]-cyclohexyl}-acetamide]: the Ki came to 40.4 nM.
On to `COCCC(=O)N[C@H]1CC[C@H](CCN2CCN(c3noc4ccncc34)CC2)CC1` [Example 2, N-{trans-4-[2-(4-Isoxazolo[4,5-c]pyridin-3-yl-piperazin-1-yl)-ethyl]-cyclohexyl}-3-methoxy-propionamide], for which the Ki worked out at 24.3 nM.
In the case of `CCC(=O)N[C@H]1CC[C@H](CCN2CCN(c3noc4ccncc34)CC2)CC1` [Example 3, N-{trans-4-[2-(4-Isoxazolo[4,5-c]pyridin-3-yl-piperazin-1-yl)-ethyl]-cyclohexyl}-propionamide], the Ki worked out at 12.4 nM.
As to `O=C(CC1CC1)N[C@H]1CC[C@H](CCN2CCN(c3noc4ccncc34)CC2)CC1` [Example 4, 2-Cyclopropyl-N-{trans-4-[2-(4-isoxazolo[4,5-c]pyridin-3-yl-piperazin-1-yl)-ethyl]-cyclohexyl}-acetamide], the Ki is 15.4 nM.
`O=C(CF)N[C@H]1CC[C@H](CCN2CCN(c3noc4ccncc34)CC2)CC1` [Example 5, 2-Fluoro-N-{trans-4-[2-(4-isoxazolo[4,5-c]pyridin-3-yl-piperazin-1-yl)-ethyl]-cyclohexyl}-acetamide]: the Ki was 43 nM.
Turning to `O=C(N[C@H]1CC[C@H](CCN2CCN(c3noc4ccncc34)CC2)CC1)c1ccc(F)cc1` [Example 6, 4-Fluoro-N-{trans-4-[2-(4-isoxazolo[4,5-c]pyridin-3-yl-piperazin-1-yl)-ethyl]-cyclohexyl}-benzamide], the Ki stood at 97 nM.
Turning to `O=C(N[C@H]1CC[C@H](CCN2CCN(c3noc4ccncc34)CC2)CC1)c1ccc(F)nc1` [Example 7, 6-Fluoro-N-{trans-4-[2-(4-isoxazolo[4,5-c]pyridin-3-yl-piperazin-1-yl)-ethyl]-cyclohexyl}-nicotinamide], the Ki is 63 nM.
